Read-outs that look alike come from different tables or passages of the source.
Target: T1, human somatostatin receptor subtype 5 (Homo sapiens, UniProt P35346)
T1 construct: expressed in transfected cells
Assay: cAMP assay for SST5R (inhibition of cAMP in CHO-K1 cells)
Type: cell-based
Conditions: inhibition of cAMP via human SST5 receptor, read-out: SST5 potency
Text: General overview: All five SSTR subtypes are Gi coupled G-protein coupled receptors (GPCRs) that lead to decreases in intracellular cyclic AMP (cAMP) when activated by an agonist. Therefore, measurement of intracellular cAMP levels can be used to assess whether compounds of the invention are agonists of SSTR subtypes (John Kelly, Troy Stevens, W. Joseph Thompson, and Roland Seifert, Current Protocols in Pharmacology, 2005, 2.2.1-2.2). One example of an intracellular cAMP assay is described below.
cAMP Assay Protocol for SST5R:
Four days prior to the assay, 2,000 Chinese hamster ovary cells (CHO-K1, ATCC #CCL-61) stably expressing the human somatostatin receptor subtype 5 are plated in each well of a 96-well tissue culture-treated plate in Ham's F12 growth media (ThermoFisher #10-080-CM) supplemented with 10% donor bovine serum (Gemini Bio-Products #100-506), 100 U/mL penicillin; 100 µg/mL streptomycin; 2 mM L-glutamine (Gemini Bio-Products #400-110) and 0.25 mg/mL G418 Sulfate (GoldBio #108321-42-2). The cells are cultured at 37° C., 5% CO2 and 95% humidity. On the day of the assay, the media is aspirated and the cells are treated with 50 μL of 1.6 μM NKH477 (Sigma #N3290) plus various dilutions of compounds of the invention in assay buffer [1× Hank's Balanced Salt Solution (ThermoFisher #SH3058802), 0.5 mM HEPES pH 7.4, 0.1% bovine serum albumin, 0.2 mM 3-Isobutyl-1-methylxanthine (IBMX, VWR #200002-790)]. The cells are incubated for 20 minutes at 37° C. […] The cells are treated with 50 μL of lysis buffer (HRTF cAMP kit, Cisbio) for 30 minutes and then the lysate is diluted to 250 μL with assay buffer. The lysate is transferred to 384-well plates and cAMP detection and visualization antibodies are added and incubated for 1-24 hours at room temperature. The time-resolved fluorescent signal is read with a Tecan M1000Pro multiplate reader. The intracellular cAMP concentrations are calculated by regression to a standard curve and are plotted vs. the concentration of the compounds of the invention and the EC50 of the compounds are calculated using standard methods. All data manipulations are in GraphPad Prism v6 or v7.

T1 sequence (P35346 whole entry): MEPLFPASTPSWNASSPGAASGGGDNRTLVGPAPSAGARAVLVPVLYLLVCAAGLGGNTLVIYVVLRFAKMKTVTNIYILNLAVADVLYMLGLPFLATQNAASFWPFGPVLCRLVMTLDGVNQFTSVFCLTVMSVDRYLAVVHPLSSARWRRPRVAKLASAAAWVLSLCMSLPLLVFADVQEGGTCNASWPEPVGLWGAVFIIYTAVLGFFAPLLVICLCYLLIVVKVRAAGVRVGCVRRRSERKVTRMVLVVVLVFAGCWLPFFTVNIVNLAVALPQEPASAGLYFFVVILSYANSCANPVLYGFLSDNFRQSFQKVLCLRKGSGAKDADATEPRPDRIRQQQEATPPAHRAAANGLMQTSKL

| SMILES | EC50 (Table A) [nM] | EC50 (Table B) [nM] |
| --- | --- | --- |
| Cc1cccc2[nH]c(-c3cncc(C(=O)N[C@H](C)C(F)(F)F)c3N3CC[C@](C)(N)C3)nc12 [2-18, 4-[(3S)-3-amino-3-methylpyrrolidin-1-yl]-5-(4-methyl-1H-1,3-benzodiazol-2-yl)-N-[(2R)-1,1,1-trifluoropropan-2-yl]pyridine-3-carboxamide] | < 10 | – |
| Cc1cccc2[nH]c(-c3cncc(C(=O)N4CCc5ccccc54)c3N3CC[C@](C)(N)C3)nc12 [2-34, (3S)-1-[3-(2,3-dihydro-1H-indole-1-carbonyl)-5-(4-methyl-1H-1,3-benzodiazol-2-yl)pyridin-4-yl]-3-methylpyrrolidin-3-amine] | 10 to 100 | – |
| Cc1cc(-c2cncc(C(=O)N[C@@H](C)C3CC3)c2N2CC[C@](C)(N)C2)cc(C)n1 [1-131, 4-[(3S)-3-amino-3-methylpyrrolidin-1-yl]-N-[(1S)-1-cyclopropylethyl]-2′,6′-dimethyl-[3,4′-bipyridine]-5-carboxamide] | < 10 | – |
| Cc1cccc2[nH]c(-c3cncc(C(=O)N4CCC(F)(F)C4)c3N3CC[C@](C)(N)C3)nc12 [2-25, (3S)-1-[3-(3,3-difluoropyrrolidine-1-carbonyl)-5-(4-methyl-1H-1,3-benzodiazol-2-yl)pyridin-4-yl]-3-methylpyrrolidin-3-amine] | 10 to 100 | – |
| N#Cc1cccc(-c2cncc(C(=O)NC3CCCCC3)c2N2CC[C@H](N)C2)c1 [1-7, 4-[(3S)-3-aminopyrrolidin-1-yl]-5-(3-cyanophenyl)-N-cyclohexylpyridine-3-carboxamide] | 100 to 1000 | – |
| C[C@]1(N)CCN(c2c(C(=O)N[C@@H]3CCCC[C@H]3F)cncc2-c2cc(F)cc(F)c2)C1 (mixture of isomers) [1-52, 4-[(3S)-3-amino-3-methylpyrrolidin-1-yl]-5-(3,5-difluorophenyl)-N-[trans-2-fluorocyclohexyl]pyridine-3-carboxamide] | < 10 | – |
| COc1ncc(C(=O)N[C@@H](C)c2ccccn2)c(N2CC[C@](C)(N)C2)c1-c1cc(F)cc(OC(F)F)c1 [1-241, 4-[(3S)-3-amino-3-methylpyrrolidin-1-yl]-5-[3-(difluoromethoxy)-5-fluorophenyl]-6-methoxy-N-[(1S)-1-(pyridin-2-yl)ethyl]pyridine-3-carboxamide] | 10 to 100 | 10 to 100 |
| Cc1cccc2[nH]c(-c3cncc(C(=O)NC45CCC(CC4)C5)c3N3CC[C@](C)(N)C3)nc12 [2-33, 4-[(3S)-3-amino-3-methylpyrrolidin-1-yl]-N-{bicyclo[2.2.1]heptan-1-yl}-5-(4-methyl-1H-1,3-benzodiazol-2-yl)pyridine-3-carboxamide] | < 10 | – |
| Cc1cccc2[nH]c(-c3cncc(C(=O)N4CCC(C(F)(F)F)C4)c3N3CC[C@](C)(N)C3)nc12 (stereo partly drawn) [2-44, (3S)-3-methyl-1-[3-(4-methyl-1H-1,3-benzodiazol-2-yl)-5-[3-(trifluoromethyl)pyrrolidine-1-carbonyl]pyridin-4-yl]pyrrolidin-3-amine] | 10 to 100 | – |
| C[C@H](NC(=O)c1cncc(-c2ccc3c(c2)OC(F)(F)O3)c1N1CC[C@](C)(N)C1)C1CC1 [1-175, 4-[(3S)-3-amino-3-methylpyrrolidin-1-yl]-N-[(1S)-1-cyclopropylethyl]-5-(2,2-difluoro-2H-1,3-benzodioxol-5-yl)pyridine-3-carboxamide] | 10 to 100 | – |
| N[C@H]1CCN(c2c(C(=O)NC3CCC(F)(F)CC3)cnc(OCCC(=O)O)c2-c2cc(F)cc(F)c2)C1 [1-204, 3-({4-[(3S)-3-aminopyrrolidin-1-yl]-5-[(4,4-difluorocyclohexyl)carbamoyl]-3-(3,5-difluorophenyl)pyridin-2-yl}oxy)propanoic acid] | > 1000 | – |
| C[C@]1(N)CCN(c2c(C(=O)N[C@@H]3CCCC[C@@H]3F)cncc2-c2cc(F)cc(F)c2)C1 (mixture of isomers) [1-83, 4-[(3S)-3-amino-3-methylpyrrolidin-1-yl]-5-(3,5-difluorophenyl)-N-[cis-2-fluorocyclohexyl]pyridine-3-carboxamide] | < 10 | – |
| Cc1cc(C)cc(-c2cncc(C(=O)NC3CCCC(F)(F)C3)c2N2CC[C@](C)(N)C2)c1 (stereo partly drawn) [1-14, 4-[(3S)-3-amino-3-methylpyrrolidin-1-yl]-N-(3,3-difluorocyclohexyl)-5-(3,5-dimethylphenyl)pyridine-3-carboxamide] | < 10 | – |
| C[C@]1(N)CCN(c2c(C(=O)NC3CCC(F)(F)CC3)cnc(C(F)(F)F)c2-c2cc(F)cc(F)c2)C1 [1-211, 4-[(3S)-3-amino-3-methylpyrrolidin-1-yl]-N-(4,4-difluorocyclohexyl)-5-(3,5-difluorophenyl)-6-(trifluoromethyl)pyridine-3-carboxamide] | < 10 | – |

Now from value to compound:

| EC50 (Table A) [nM] | EC50 (Table B) [nM] | SMILES |
| --- | --- | --- |
| 100 to 1000 | – | CC(NC(=O)c1cnc(C#N)c(-c2cc(F)cc(F)c2)c1N1CC[C@](C)(N)C1)c1cn(C)nn1 (stereo partly drawn) [1-133, 4-[(3S)-3-amino-3-methylpyrrolidin-1-yl]-6-cyano-5-(3,5-difluorophenyl)-N-[1-(1-methyl-1H-1,2,3-triazol-4-yl)ethyl]pyridine-3-carboxamide] |
| 100 to 1000 | – | CN(CC1CC1)C(=O)c1cnc(C#N)c(-c2cc(F)cc(F)c2)c1N1CC[C@](C)(N)C1 [1-218, 4-[(3S)-3-amino-3-methylpyrrolidin-1-yl]-6-cyano-N-(cyclopropylmethyl)-5-(3,5-difluorophenyl)-N-methylpyridine-3-carboxamide] |
| 10 to 100 | – | Cn1ccc(CNC(=O)c2cnc(C#N)c(-c3cc(F)cc(F)c3)c2N2CC[C@](C)(N)C2)n1 [1-105, 4-[(3S)-3-amino-3-methylpyrrolidin-1-yl]-6-cyano-5-(3,5-difluorophenyl)-N-[(1-methyl-1H-pyrazol-3-yl)methyl]pyridine-3-carboxamide] |
| 10 to 100 | – | Cn1ccnc1CNC(=O)c1cnc(C#N)c(-c2cc(F)cc(F)c2)c1N1CC[C@](C)(N)C1 [1-106, 4-[(3S)-3-amino-3-methylpyrrolidin-1-yl]-6-cyano-5-(3,5-difluorophenyl)-N-[(1-methyl-1H-imidazol-2-yl)methyl]pyridine-3-carboxamide] |
| 100 to 1000 | – | C[C@@H](NC(=O)c1cnc(C#N)c(-c2cc(F)cc(F)c2)c1N1CC[C@@H](N)C1)C(F)(F)F [1-227, 4-[(3R)-3-aminopyrrolidin-1-yl]-6-cyano-5-(3,5-difluorophenyl)-N-[(2R)-1,1,1-trifluoropropan-2-yl]pyridine-3-carboxamide] |
| < 10 | – | C[C@H](NC(=O)c1cnc(C#N)c(-c2cc(F)cc(F)c2)c1N1CC[C@H](N)C1)c1ccccn1 [1-95, 4-[(3S)-3-aminopyrrolidin-1-yl]-6-cyano-5-(3,5-difluorophenyl)-N-[(1S)-1-(pyridin-2-yl)ethyl]pyridine-3-carboxamide] |
| < 10 | – | C[C@]1(N)CCN(c2c(C(=O)NC3CCCOC3)cnc(C#N)c2-c2cc(F)cc(F)c2)C1 (stereo partly drawn) [1-89, 4-[(3S)-3-amino-3-methylpyrrolidin-1-yl]-6-cyano-5-(3,5-difluorophenyl)-N-(oxan-3-yl)pyridine-3-carboxamide] |
| < 10 | – | Cc1cc(F)cc(-c2cncc(C(=O)Nc3ccn(C)n3)c2N2CC[C@](C)(N)C2)c1 [1-27, 4-[(3S)-3-amino-3-methylpyrrolidin-1-yl]-5-(3-fluoro-5-methylphenyl)-N-(1-methyl-1H-pyrazol-3-yl)pyridine-3-carboxamide] |
| < 10 | – | CC(C)CNC(=O)c1cncc(-c2cc(F)cc(F)c2)c1N1CC[C@](C)(N)C1 [1-46, 4-[(3S)-3-amino-3-methylpyrrolidin-1-yl]-5-(3,5-difluorophenyl)-N-(2-methylpropyl)pyridine-3-carboxamide] |

Source: patent US12600709B2, “Nonpeptide somatostatin type 5 receptor agonists and uses thereof” (Crinetics Pharmaceuticals, Inc., priority 2019, dated 2026)
